In patent publication US20240383893A1, “Hydroxamic Acid Compound Having ENPP1 Inhibitory Activity and Use Thereof” (Haihe Biopharma Co., Ltd., priority 2021, published 2024):

Biological target: T1, ENPP1 (hENPP1-ECD-His) (Homo sapiens (Human), UniProt P22413)
T1 sequence (P22413 98-925): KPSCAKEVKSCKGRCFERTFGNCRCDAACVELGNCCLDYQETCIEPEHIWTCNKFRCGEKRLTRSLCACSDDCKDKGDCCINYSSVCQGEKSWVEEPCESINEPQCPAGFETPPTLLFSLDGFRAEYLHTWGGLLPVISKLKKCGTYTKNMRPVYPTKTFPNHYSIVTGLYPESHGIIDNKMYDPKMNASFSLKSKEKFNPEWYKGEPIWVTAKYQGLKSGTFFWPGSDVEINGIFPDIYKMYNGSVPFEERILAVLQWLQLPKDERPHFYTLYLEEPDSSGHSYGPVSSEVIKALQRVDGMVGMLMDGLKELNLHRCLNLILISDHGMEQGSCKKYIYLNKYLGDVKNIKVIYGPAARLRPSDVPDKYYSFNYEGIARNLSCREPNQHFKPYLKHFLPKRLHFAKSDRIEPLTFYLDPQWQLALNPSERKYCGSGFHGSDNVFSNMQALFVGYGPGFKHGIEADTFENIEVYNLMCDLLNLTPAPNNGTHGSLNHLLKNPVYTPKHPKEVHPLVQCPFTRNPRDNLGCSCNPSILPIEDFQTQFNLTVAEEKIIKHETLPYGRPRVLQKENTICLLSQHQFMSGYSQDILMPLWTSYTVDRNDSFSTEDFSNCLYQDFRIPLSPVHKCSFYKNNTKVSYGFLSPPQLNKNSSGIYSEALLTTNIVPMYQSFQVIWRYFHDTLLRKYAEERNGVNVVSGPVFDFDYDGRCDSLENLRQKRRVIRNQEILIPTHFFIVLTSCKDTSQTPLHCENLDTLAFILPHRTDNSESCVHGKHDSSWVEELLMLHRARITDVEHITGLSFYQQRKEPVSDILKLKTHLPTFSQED
Test: biochemical
Conditions: not given
`CNc1ccc2c(Oc3ccc(C(C)(C)C(=O)NO)cc3)ccnc2c1` [Compound 102] gave an IC50 of 389 nM. For `COc1ccc2c(Oc3ccc(C(F)C(=O)NO)cc3)ccnc2n1` (stereo not drawn) [Compound 43], the IC50 was 5.3 nM. With `COc1ccc2c(Oc3cnn(C(C)(C)C(=O)NO)c3)ccnc2n1` [Compound 155] the IC50 was 28 nM. `CCOC(C(=O)NO)c1ccc(Oc2ccnc3nc(OC)ccc23)cc1` (stereo not drawn) [Compound 86] showed an IC50 of 3.7 nM. With `CC(C)C(C(=O)NO)c1ccc(Nc2ncnc3c2cnn3C)cc1` (stereo not drawn) [Compound 199] the IC50 was 317 nM. Work on `COc1cc2nccc(Nc3cnn(C4(C(=O)NO)CCOCC4)c3)c2cn1` [Compound 183] yielded an IC50 of 6.8 nM.

Tested on: not listed separately
Test: Preliminary pharmacokinetic testing in ICR mice (gavage 5 mg/kg, intravenous 1 mg/kg)
Assay type: in vivo
Conditions: male, mouse, oral administration (5 mg/kg), plasma
Protocol: 1. 6 healthy ICR mice, male, weighing 30-35 g, were randomly divided into 2 groups with 3 mice in each group. The tested compound was administered by gavage (5 mg/kg) and intravenous injection (1 mg/kg), respectively:
Feeding uniformly 4 hours after administration.
`COc1ccc2c(Oc3ccc(C(C)(C)C(=O)NO)c(F)c3)ccnc2n1` [Compound 110] gave an AUC(0-t) of 1590 ng·h/mL and a half-life of 3.9 h. Molecule `COc1ccc2c(Oc3ccc(C4(C(=O)NO)CCOCC4)cc3)ccnc2n1` [Compound 107] has an AUC(0-t) of 463 ng·h/mL and a half-life of 2 h. With `COc1ccc2c(Oc3ccc(CC(=O)NO)cc3)ccnc2n1` [Compound 2, N-hydroxy-2-(4-((7-methoxy-1,8-naphthylidin-4-yl)oxy)phenyl)acetamide] the AUC(0-t) was 619 ng·h/mL. `Cn1ncc2c(Nc3ccc(C(C)(C)C(=O)NO)cc3)ncnc21` [Compound 68] showed an AUC(0-t) of 161 ng·h/mL and a half-life of 2.44 h. `COc1ccc2c(Oc3ccc(C(C)(C)C(=O)NO)cc3)ccnc2n1` [Compound 42] gave an AUC(0-t) of 887 ng·h/mL and a half-life of 1.3 h.

Same assay, conditions: male, mouse, oral administration (5 mg/kg), plasma, read-out: Cmax
`COc1ccc2c(Oc3ccc(C(C)(C)C(=O)NO)c(F)c3)ccnc2n1` [Compound 110] gave a Cmax of 2370 ng/mL. For `COc1ccc2c(Oc3ccc(C4(C(=O)NO)CCOCC4)cc3)ccnc2n1` [Compound 107], the Cmax was 640 ng/mL. `Cn1ncc2c(Nc3ccc(C(C)(C)C(=O)NO)cc3)ncnc21` [Compound 68] gave a Cmax of 244 ng/mL. With `COc1ccc2c(Oc3ccc(C(C)(C)C(=O)NO)cc3)ccnc2n1` [Compound 42] the Cmax was 1490 ng/mL.

Same assay, conditions: male, mouse, plasma, oral administration (5 mg/kg) vs intravenous (1 mg/kg), read-out: F %
`Cn1ncc2c(Nc3ccc(C(C)(C)C(=O)NO)cc3)ncnc21` [Compound 68] gave a bioavailability of 20.2%.

Same assay, conditions: male, mouse, plasma, po, 5 mg/kg, read-out: oral bioavailability
With `COc1ccc2c(Oc3ccc(C(C)(C)C(=O)NO)c(F)c3)ccnc2n1` [Compound 110] the bioavailability was over 20%. With `COc1ccc2c(Oc3ccc(CC(=O)NO)cc3)ccnc2n1` [Compound 2, N-hydroxy-2-(4-((7-methoxy-1,8-naphthylidin-4-yl)oxy)phenyl)acetamide] the bioavailability was over 20%.

Same assay, conditions: oral administration (5 mg/kg), plasma
Molecule `COc1ccc2c(Oc3ccc(CC(=O)NO)cc3)ccnc2n1` [Compound 2, N-hydroxy-2-(4-((7-methoxy-1,8-naphthylidin-4-yl)oxy)phenyl)acetamide] has a Cmax of 736 ng/mL and a T1/2 of 3.26 h.

Biological target: T1, ENPP1 (hENPP1-ECD-His)
Test: not given
Conditions: not given
Molecule `Cn1ncc2c(Nc3ccc(C(C)(C)C(=O)NO)cc3)ncnc21` [Compound 68] has an IC50 of 4.8 nM. With `COc1cc2nccc(Oc3ccc(C4(C(=O)NO)CCCC4)cc3)c2cn1` [Compound 123] the IC50 was 1.2 nM. With `COc1ccc2c(Nc3ccc(CC(=O)NO)cc3)nc(Cl)nc2c1` [Compound 22] the IC50 was 1.8 nM. Molecule `COc1ccc2c(Oc3ccc(C4(C(=O)NO)CCN(Cc5ccccc5)CC4)cc3)ccnc2n1` [Compound 173] has an IC50 of 1.6 nM. `COc1ccc2c(Nc3ccc(C(C)(C)C(=O)NO)cc3)cnnc2c1` [Compound 147] gave an IC50 of 1.5 nM. In the case of `CCC(CC)(C(=O)NO)c1ccc(Oc2ccnc3nc(OC)ccc23)cc1` [Compound 124], the IC50 is reported as 1.6 nM. With `COc1ccc2c(Oc3ccc(C4(C(=O)NO)CCOCC4)c(Cl)c3)ccnc2n1` [Compound 135] the IC50 was 7.1 nM. Work on `CCn1ncc2c(Nc3ccc(C(C)C(=O)NO)c(F)c3)ccnc21` (stereo not drawn) [Compound 65] yielded an IC50 of 1.9 nM. In the case of `COc1ccc2c(Nc3cnn(C4(C(=O)NO)CCOCC4)c3)ccnc2n1` [Compound 174], the IC50 is reported as 2.1 nM. `COc1ccc2c(Nc3c(F)cc(C(C)C(=O)NO)cc3F)ccnc2n1` (stereo not drawn) [Compound 62] showed an IC50 of 1.6 nM. Work on `COc1ccc2c(N[C@H]3CC[C@H](CC(=O)NO)CC3)ccnc2n1` [Compound 89] yielded an IC50 of 24 nM. With `CCn1nc(C)c2c(Nc3ccc(CC(=O)NO)cc3)ncnc21` [Compound 74] the IC50 was 7.8 nM. With `Cn1ncc2c(Oc3ccc(C4(C(=O)NO)CCOCC4)c(Cl)c3)ccnc21` [Compound 197] the IC50 was 111 nM. Molecule `COc1cc2ncnc(Oc3ccc(CC(=O)NO)cc3)c2cc1OC` [Compound 11] has an IC50 of 28 nM. `COc1ccc2c(Oc3ccc(C(N)C(=O)NO)cc3)ccnc2n1` (stereo not drawn) [Compound 148] showed an IC50 of 2.8 nM. `Cc1noc2ncnc(Oc3ccc(C(C)(C)C(=O)NO)cc3)c12` [Compound 194, N-hydroxy-2-methyl-2-(4-((3-methylisoxazol[5,4-d]pyrimidin-4-yl)oxy)phenyl)propanamide] showed an IC50 of 284 nM. With `COc1ccc2c(Nc3ccc(C(C)(C)C(=O)NO)cn3)ccnc2n1` [Compound 101] the IC50 was 1.1 nM. For `COc1ccc2c(Nc3ccc4c(c3)OCC4C(=O)NO)ccnc2n1` (stereo not drawn) [Compound 59], the IC50 was 1.8 nM. In the case of `Cn1c(=O)ccc2c(Nc3ccc(CC(=O)NO)cc3)ccnc21` [Compound 18, N-hydroxy-2-(4-((8-methyl-7-oxy-7,8-dihydro-1,8-naphthyridin-4-yl)amino)phenyl)acetamide], the IC50 is reported as 343 nM. With `COc1ccc2c(Oc3ccc(C(C)(C)C(=O)NO)c(C)c3)ccnc2n1` [Compound 109] the IC50 was 2.3 nM. With `Cn1ncc2c(Oc3ccc(C4(C(=O)NO)CCCC4)cc3)ccnc21` [Compound 129] the IC50 was 5.7 nM. Work on `COc1ccc2c(Oc3cc(F)c(C(C)(C)C(=O)NO)c(F)c3)ccnc2n1` [Compound 46] yielded an IC50 of 16 nM. `COc1ccc2c(Oc3cc(F)c(C4(C(=O)NO)CCOCC4)cc3F)ccnc2n1` [Compound 134] gave an IC50 of 3.3 nM. Work on `COc1ccc2c(CN3CCC(C(C)(C)C(=O)NO)C3)ccnc2n1` (stereo not drawn) [Compound 157] yielded an IC50 of 81 nM. `COc1ccc2c(Nc3cc(F)c(CC(=O)NO)cc3F)ccnc2n1` [Compound 52] gave an IC50 of 2.2 nM. Molecule `COc1ccc2c(Oc3ccc([C@@H](C(=O)NO)C4CCOCC4)c(F)c3)ccnc2n1` [Compound 198] has an IC50 of 61 nM. Molecule `COc1ccc2c(Oc3ccc(CC(=O)NO)c(F)c3)ccnc2n1` [Compound 25] has an IC50 of 1.9 nM. In the case of `COc1cc2nccc(Oc3ccc(CC(=O)NO)cc3)c2cc1F` [Compound 13], the IC50 is reported as 1.37 nM. `CCn1ncc2c(Nc3ccc(CC(=O)NO)c(F)c3)ccnc21` [Compound 193] showed an IC50 of 2.2 nM. `O=C(Cc1ccc(Nc2ncnc3ncccc23)cc1)NO` [Compound 39] gave an IC50 of 205 nM. For `COc1ccc2c(Oc3ccc(C4(C(=O)NO)CC5CCC(C4)O5)cc3)ccnc2n1` (stereo not drawn) [Compound 176], the IC50 was 2.9 nM. `CCn1ncc2c(Oc3ccc(C(C)C(=O)NO)cc3)ccnc21` (stereo not drawn) [Compound 73] gave an IC50 of 8.6 nM. `COc1cc2nccc(Nc3c(F)cc(C(CC(C)C)C(=O)NO)cc3F)c2cn1` (stereo not drawn) [Compound 184] showed an IC50 of 2.2 nM. Work on `CCn1ncc2c(Nc3ccc(CC(=O)NO)c(Cl)c3)ccnc21` [Compound 77] yielded an IC50 of 1.2 nM. In the case of `COc1ccc2c(Nc3ccc(C(C)(C)C(=O)NO)nc3)ccnc2n1` [Compound 127], the IC50 is reported as 1.6 nM. In the case of `COc1ccc2c(Nc3ccc(CC(=O)NO)c(OC)c3)ccnc2n1` [Compound 79], the IC50 is reported as 1.9 nM. Molecule `COc1cc2nccc(Nc3cc(F)c(C(CC(C)C)C(=O)NO)c(F)c3)c2cn1` (stereo not drawn) [Compound 186] has an IC50 of 3.8 nM. `COc1ccc2c(Oc3ccc(C(OC)C(=O)NO)cc3)ccnc2n1` (stereo not drawn) [Compound 85] showed an IC50 of 4.8 nM. Molecule `COc1ccc2c(N3CCc4cc(CC(=O)NO)ccc43)ccnc2n1` [Compound 204] has an IC50 of 24 nM. For `COc1ccc2c(Nc3cnn(CC(=O)NO)c3)ccnc2n1` [Compound 90], the IC50 was 4.5 nM. `COc1ccc2c(Nc3ccc(CC(=O)NO)c4ccccc34)ccnc2n1` [Compound 96] showed an IC50 of 6.8 nM. In the case of `CCn1ncc2c(Nc3ccc(C4(C(=O)NO)CCOCC4)cc3)ccnc21` [Compound 163], the IC50 is reported as 2.9 nM. Work on `CONC(=O)C(C)(C)c1ccc(Oc2ccnc3cc(OC)c(OC)cc23)cc1` [Example A-2, reference compound] yielded an IC50 of 3280 nM. For `COc1ccc2c(Nc3c(F)cc(CC(=O)NO)cc3F)ccnc2n1` [Compound 71], the IC50 was 1.8 nM. With `CCn1ncc2c(Nc3ccc(C(C)(C)C(=O)NO)cc3)ncnc21` [Compound 91] the IC50 was 1.2 nM. With `COc1ccc2c(Oc3cc(F)c(C(C)(C)C(=O)NO)cc3F)ccnc2n1` [Compound 112] the IC50 was 2.5 nM. With `Cn1ncc2c(Oc3ccc(CC(=O)NO)cc3)ccnc21` [Compound 28] the IC50 was 14 nM. Work on `COc1ccc2c(Nc3ccc(C(C(=O)NO)C(C)C)c(F)c3)ccnc2n1` (stereo not drawn) [Compound 160] yielded an IC50 of 15 nM. With `CCn1nc(C)c2c(Nc3ccc(C(C)(C)C(=O)NO)cc3)ncnc21` [Compound 83] the IC50 was 4.4 nM. `COc1ccc2c(Oc3ccc(C4(C(=O)NO)CCOCC4)c(C)c3)ccnc2n1` [Compound 139] gave an IC50 of 2.3 nM. Molecule `COc1ccc2c(NC3CCN(C(C)(C)C(=O)NO)C3)ccnc2n1` (stereo not drawn) [Compound 144] has an IC50 of 259 nM. Molecule `COc1cc2nccc(Nc3cc(F)c(C(C(=O)NO)C(C)C)c(F)c3)c2cn1` (stereo not drawn) [Compound 191] has an IC50 of 11 nM. `CC(C)(C(=O)NO)c1ccc(Oc2ccnc3cc(Cl)ccc23)cc1` [Compound 94] showed an IC50 of 257 nM. For `O=C(Cc1ccc(Nc2ncnc3ccccc23)cc1)NO` [Compound 16], the IC50 was 64 nM. `COc1ccc2c(Oc3ccc(C4(C(=O)NO)CCOCC4)cc3F)ccnc2n1` [Compound 136] showed an IC50 of 4.4 nM. `COc1ccc2c(Oc3ccc(C(O)C(=O)NO)cc3)ccnc2n1` (stereo not drawn) [Compound 38] gave an IC50 of 4.4 nM. For `COc1ccc2c(Nc3ccc(CC(=O)NO)nc3)ccnc2n1` [Compound 44], the IC50 was 2.7 nM. Molecule `COc1cc2nccc(Nc3ccc(C4(C(=O)NO)CCOCC4)c(F)c3)c2cn1` [Compound 181] has an IC50 of 1.9 nM. `Cn1ncc2c(Nc3ccc(CC(=O)NO)cc3)ccnc21` [Compound 40] showed an IC50 of 4.8 nM. With `COc1ccc2c(Nc3ccc(CC(=O)NO)c(Cl)c3)ccnc2n1` [Compound 78] the IC50 was 1.8 nM. Work on `COc1cc2nccc(Nc3ccc(C4(C(=O)NO)CCOCC4)cc3F)c2cn1` [Compound 178] yielded an IC50 of 1.2 nM. `COc1ccc2c(O[C@H]3CCN(C(C)(C)C(=O)NO)C3)ccnc2n1` [Compound 205] showed an IC50 of 39 nM. With `COc1ccc2c(Nc3ccc(CC(=O)NO)cc3)ncnc2n1` [Example 1, N-hydroxy-2-(4-((7-methoxypyridino[2,3-d]pyrimidin-4-yl)amino)phenyl)acetamide] the IC50 was 1.8 nM.
